The nature of series [1]: Surface-pressure area isotherms. The class given is physicochemical. The note with it: for minimal area per molecule: constant pressure of 20 mN/m; for collapse point pressure of monolayer: pure water sub-phase; for Area/molecule: table, monolayer on pure water sub-phase. On the procedure:
The tested ceramides (C2 Cer, C4 Cer, C6 Cer, C8 Cer, C16 Cer) were dried in vacuum overnight, weighted and dissolved in hexane/isopropanol (3:2 vol.) to make the following stock solutions.
The surface-pressure/area isotherms were obtained on pure water sub-phase (similar isotherms were obtained on 140 mM NaCl). Barrier speed during compression was […] for all monolayers.
The minimal area per molecule of different ceramides (C2 Cer, C4 Cer, C6 Cer, C8 Cer, C16 Cer) was calculated at the constant pressure of 20 mN/m. […] The area per molecule of C2 Cer, C4 Cer, C8 Cer, C16 Cer was about 38, 46, 45.5, and 37.5^2, respectively.

The nature of series [2]: Injection of ceramide dispersions into mice (tolerance, weight). The conditions noted are these: for decrease from initial weight: mouse, in vivo. On the procedure:
[…] of C2Cer and C6Cer dispersions in ethanol or in ethanol:dodecane (98:2) (required final blood concentration of about 3.3%) were injected to the Balb/c female mice (8 week old).
In addition, 1 μmole/mouse of C2Cer and C6Cer dispersions in ethanol or in ethanol:dodecane (98:2) in isotonic BSA solution (BSA 2 mM, NaCl 112 mM, pH 7.4) was injected in order to reach the final ethanol or ethanol:dodecane blood concentration of about 3.3%. For the preparation of ceramide-BSA complexes the 33 μl of 30 mM stock of C2Cer and C6Cer dispersions were incubated for 30 min at 30° C. with 417 μl of 2 mM BSA solution in order to reach the ceramide/BSA mole ratio of 1/0.8, respectively [Hannun, Supra, 2000].

A short description of series [3]: Partition in the two phases of the Dole system. It is filed as physicochemical.
The test system of series [4] is C-26 cells. Put plainly: Apoptosis by chromatin morphology (Hoechst-33342, confocal microscopy). The class given is cell-based, human. How it is done:
(§1) a) The morphology of chromatin was assessed by staining with Hoechst-33342 obtained from Calbiochem (La Jolla, Calif.), a molecule which when reside in the minor groove of the DNA strand enhance its fluorescence intensity and, therefore, it is preferentially stains dsDNA [Jouvet, P. Mol. Biol. Cell 11:1919-1932 (2000)]. Briefly, samples containing 5*10^5 cells were cultured on 6-well plates covered with a glass coverslip. After treatment of cells with IC50 of drugs, cells were washed with PBS and fixated with 4% formaldehyde. After that cells were stained with Hoechst-33342 (5 μg/ml) and washed. Thereafter, glass coverslip was placed on a glass slide and photographed using a CLMS.

In series [5] the test system is OV-1063 cells. Described as above. The class given is cell-based, human. The note with it: for Apoptotic OV-1063 cells (% of total cell number), 16 hr: IC50 concentrations. How it is done:
as §1

Series [6] in a line: Critical aggregation concentration (CAC) by surface tension. It is filed as physicochemical. The conditions noted are these: pure water containing 0.3% ethanol, room temperature. How it is done:
The critical aggregation concentration (CAC) of the ceramides is the concentration at which aggregation of monomers to an amphiphile assembly occurs. CAC of the C2, C6, and C16 ceramides was determined in filtered pure water containing 0.3% ethanol by measuring at room temperature surface tension as a function of ceramide concentration. The measurements were done using μThrougs Kibron System (Helsinki, Finland) which determine the surface tension at the air/water interface. The measurement at each concentration was repeated until a constant value of surface tension was reached [Zuidam, N. and Barenholz, Y., Supra (1997)]

Series [7] deals with caspase-3 activity in OV-1063 tumor cells. In words: EnzChek Caspase-3 assay. It is filed as cell-based, human. The conditions noted are these: 16 hr, IC50 values. An excerpt:
Biochemically, apoptosis was verified by the EnzChek™ Caspase-3 Assay Kit (Molecular Probes). This allows the detection of apoptosis by assaying for increases in caspase-3 and other DEVD-specific protease activities (e.g., caspase-7). The basis for the assay is rhodamine 110 bis-(N-CBZ-aspartyl-L-glutamyl-L-valyl-aspartic acid amide) referred to as Z-DEVD-R110. This substrate is a bisamide derivative of rhodamine 110 (R110) containing DEVD peptides covalently linked to each of R110's amino groups. Upon enzymatic cleavage, the nonfluorescent bisamide substrate is converted to the fluorescent R110, which was quantified by a fluorescence microplate reader (Tecan) using excitation at 485±10 nm and emission at 535±10 nm. […] The AC-DEVD-inhibitor was used to confirm that the observed fluorescence signal in treated samples is due to the activity of caspase-3 protease. Both induced and control cells were then harvested and lysed. Enzyme reactions were performed in 96-well plates with 50 μg of cytosolic proteins (55 min. of incubation) and a final concentration of 25 μM Z-DEVD-R110 substrate, as described in the kit protocol.

A short description of series [8]: Conversion of C6Cer in cell derived or fresh medium. It is filed as in vitro ADME.

For `CCCCCCCCCCCCC/C=C/[C@@H](O)[C@H](CO)NC(C)=O` [C2Cer, N-Acetyl-D-erythro-sphingosine], in series [1], the monolayer stability entry is “did not give a stable monolayer”, the “minimal area per molecule” value was “about 38 Å^2”, the “collapse point pressure of monolayer” value is “about 42 mN/m” and the Area/molecule is on record as 38 A^2. Also, in series [2], the “decrease from initial weight” value is “about 5%”. For the same compound, in series [3], the “Liposome formation (being a liposome forming lipid by itself)” value (from here on “Liposome formation”) was “No”. Also, in series [4], the “Apoptotic C-26 cells (% of total cell number), 16 hr” value is given as 7% and the “Apoptotic C-26 cells (% of total cell number), 24 hr” value is given as 14%. For the same compound, in series [5], the “Apoptotic OV-1063 cells (% of total cell number), 24 hr” value amounted to 60% and the “Apoptotic OV-1063 cells (% of total cell number), 16 hr” value is 48%. The “CAC (critical aggregation concentration)” value in series [6] was 10^−6M.
Turning to `CCCCCCCCCCCCC/C=C/[C@@H](O)[C@H](CO)NC(=O)CCCCCCCCCCCCCCC` [C16Cer, N-palmitoyl-D-erythro-sphingosine], in series [1], the monolayer stability result is listed as “unstable monolayer”, the “minimal area per molecule” value was roughly 37.5 Å^2, the “collapse point pressure of monolayer” value is “up to 50 mN/m” and the Area/molecule worked out at 37.5 A^2. Moreover, the “Liposome formation” value in series [3] was “No”. In addition, in series [4], the “Apoptotic C-26 cells (% of total cell number), 24 hr” value stood at 9%. For the same compound, in series [5], the “Apoptotic OV-1063 cells (% of total cell number), 24 hr” value is given as 17%. Further, the “increase in caspase-3 activity vs control, untreated cells” value in series [7] is on record as “no activation”.
For the compound `CCCCCCCCCCCCC/C=C/[C@@H](O)[C@H](CO)NC(=O)CCCCC` [C6Cer, N-hexanoyl-D-erythro-sphingosine], in series [1], the “minimal area per molecule” value is “about 50 Å^2”, the “collapse point pressure of monolayer” value is given as “about 42 mN/m” and the Area/molecule was 50 A^2. Also, in series [8] (cell derived medium (taken from C26 cells)), the “ceramide converted into C6 SPM” value was 9%. Besides, the metabolic activity entry in series [8] (fresh medium) is listed as “no metabolitic activity”. Also, in series [2] (ethanol:dodecane (98:2) dispersions), the death of mice entry is “died during the injection”. Moreover, the “decrease from initial weight” value in series [2] was “about 5%”. For the same compound, the “Liposome formation” value in series [3] is “No”. In addition, in series [4], the “Apoptotic C-26 cells (% of total cell number), 16 hr” value is reported as 9% and the “Apoptotic C-26 cells (% of total cell number), 24 hr” value is on record as 18%. Further, in series [5], the “Apoptotic OV-1063 cells (% of total cell number), 24 hr” value turned out to be 61% and the “Apoptotic OV-1063 cells (% of total cell number), 16 hr” value is reported as 53%.

The values are drawn from patent publication US20060198882A1, “Stable liposomes or micelles comprising a sphinolipid and a peg-lipopolymer” (priority 2003, published 2006).
